Experiment [1] addresses T1, human indolethylamine N-methyltransferase (hINMT) (Homo sapiens, UniProt O95050). As to the kind of experiment: quinoline-based continuous fluorometric methylation assay. The class given is biochemical.
Experiment [2] addresses T1, human indolethylamine N-methyltransferase (hINMT). The experiment can be described thus: thermal shift assay. The class given is binding.

T1 sequence (O95050 whole entry): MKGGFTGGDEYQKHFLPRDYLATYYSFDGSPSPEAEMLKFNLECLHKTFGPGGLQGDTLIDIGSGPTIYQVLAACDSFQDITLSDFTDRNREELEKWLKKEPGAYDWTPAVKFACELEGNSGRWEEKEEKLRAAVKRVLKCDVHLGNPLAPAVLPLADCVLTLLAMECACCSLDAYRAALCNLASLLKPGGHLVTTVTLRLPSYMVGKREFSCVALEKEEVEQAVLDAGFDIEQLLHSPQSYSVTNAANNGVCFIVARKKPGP

Turning to `CNS(=O)(=O)CCc1ccc2[nH]cc(C3CCN(C)CC3)c2c1` [Naratriptan], 188.5 ± 1.8 µM corresponded to half-maximal inhibition in experiment [1] (IC50).
With `C[S+](CC[C@H](N)C(=O)[O-])C[C@H]1O[C@@H](n2cnc3c(N)ncnc32)[C@H](O)[C@@H]1O` (some centres unmarked) [SAM], the Kd – broadly, the equilibrium constant for the complex coming apart – in experiment [2] is 55.6 ± 2.6 µM.
